Results published in PubChem BioAssay AID330 (DTP/NCI, 2004).
Several values for one entry are separate records, joined by “and”; a condition that tells them apart may be missing. Equal entries are not always repeated. Toxic doses and inconclusive results are not listed. The calls were made as follows: active = survival T/C of 150% or more; inactive = T/C below 125% in these data.

Tested on: P388 leukemia ip, CD2F1 mice, survival T/C
Assay: NCI In Vivo Anticancer Drug Screen. Data for tumor model P388 Leukemia (intraperitoneal) in CD2F1 (CDF1) mice
Settings: endpoint: median survival time, higher = longer survival
In short: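 Mice carrying the transplanted tumor received test compound or vehicle. Survival was recorded in each group, and the value is the treated-group measurement divided by that of the vehicle-treated control group.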

[1] = dose: 50.0 mg/kg/injection, schedule: Q01DX005 (ip), vehicle: saline with Tween-80
[2] = dose: 100.0 mg/kg/injection, schedule: Q01DX005 (ip), vehicle: saline with Tween-80
[3] = dose: 200.0 mg/kg/injection, schedule: Q01DX005 (ip), vehicle: saline with Tween-80
[4] = dose: 50.0 mg/kg/injection, schedule: Q01DX005 (ip), vehicle: Klucel (hydroxypropylcellulose) (HPC)
[5] = dose: 100.0 mg/kg/injection, schedule: Q01DX005 (ip), vehicle: Klucel (hydroxypropylcellulose) (HPC)
[6] = dose: 200.0 mg/kg/injection, schedule: Q01DX005 (ip), vehicle: Klucel (hydroxypropylcellulose) (HPC)
[7] = dose: 50.0 mg/kg/injection, schedule: Q01DX009 (ip), vehicle: Klucel (hydroxypropylcellulose) (HPC)
[8] = dose: 100.0 mg/kg/injection, schedule: Q01DX009 (ip), vehicle: Klucel (hydroxypropylcellulose) (HPC)
[9] = dose: 200.0 mg/kg/injection, schedule: Q01DX009 (ip), vehicle: Klucel (hydroxypropylcellulose) (HPC)
[10] = dose: 50.0 mg/kg/injection, schedule: Q01DX009 (ip), vehicle: saline
[11] = dose: 100.0 mg/kg/injection, schedule: Q01DX009 (ip), vehicle: saline
[12] = dose: 200.0 mg/kg/injection, schedule: Q01DX009 (ip), vehicle: saline
[13] = dose: 12.5 mg/kg/injection, schedule: Q01DX009 (ip), vehicle: saline with Tween-80
[14] = dose: 25.0 mg/kg/injection, schedule: Q01DX009 (ip), vehicle: saline with Tween-80
[15] = dose: 50.0 mg/kg/injection, schedule: Q01DX009 (ip), vehicle: saline with Tween-80
[16] = dose: 100.0 mg/kg/injection, schedule: Q01DX009 (ip), vehicle: saline with Tween-80
[17] = dose: 12.5 mg/kg/injection, schedule: Q01DX005 (ip), vehicle: Klucel (hydroxypropylcellulose) (HPC)
[18] = dose: 25.0 mg/kg/injection, schedule: Q01DX005 (ip), vehicle: Klucel (hydroxypropylcellulose) (HPC)
[19] = dose: 60.0 mg/kg/injection, schedule: Q01DX005 (ip), vehicle: saline with Tween-80
[20] = dose: 25.0 mg/kg/injection, schedule: Q01DX009 (ip), vehicle: Klucel (hydroxypropylcellulose) (HPC)

Measured: T/C

CC(=O)N(C)OS(C)(=O)=O
inactive: dose: 50.0 mg/kg/injection, schedule: Q01DX001 (ip), vehicle: saline with Tween-80 108 % of control | [1] 101 % of control | dose: 100.0 mg/kg/injection, schedule: Q01DX001 (ip), vehicle: saline with Tween-80 100 % of control | [2] 103 % of control | dose: 200.0 mg/kg/injection, schedule: Q01DX001 (ip), vehicle: saline with Tween-80 104 % of control | [3] 106 % of control | dose: 400.0 mg/kg/injection, schedule: Q01DX001 (ip), vehicle: saline with Tween-80 104 % of control

Nc1nc2c(c(=O)[nH]1)CN(CCCN1CCN(CCCN3CNc4nc(N)[nH]c(=O)c4C3)CC1)CN2
inactive: [4] 94 % of control | [5] 99 % of control | [6] 91 % of control

O=S(=O)(O)CN1CCN(CCN(CS(=O)(=O)O)CS(=O)(=O)O)CC1
inactive: [4] 100 % of control | [5] 100 % of control | [6] 96 % of control

COc1ccccc1NC(=O)C1C(=O)C(=O)N(c2ccccc2OC)C1=O (stereo not given)
inactive: [7] 106 % of control | [8] 106 % of control | [9] 100 % of control

O=C(CN1C(=O)c2ccccc2C1=O)OCCNCCCl
inactive: [10] 99 % of control | [11] 106 % of control | [12] 107 % of control

COC(=O)[C@H]1O[C@H]1c1ccncc1
inactive: [4] 100 % of control and 104 % of control | [5] 103 % of control and 92 % of control | [6] 103 % of control and 94 % of control | dose: 400.0 mg/kg/injection, schedule: Q01DX005 (ip), vehicle: Klucel (hydroxypropylcellulose) (HPC) 101 % of control and 92 % of control

CN(C)C1=CC=C2C(=O)c3ccccc3C2(c2ccccc2)C=C1 (stereo not given)
inactive: dose: 100.0 mg/kg/injection, schedule: Q04DX002 (ip), vehicle: saline with Tween-80 89 % of control | dose: 200.0 mg/kg/injection, schedule: Q04DX002 (ip), vehicle: saline with Tween-80 88 % of control | dose: 400.0 mg/kg/injection, schedule: Q04DX002 (ip), vehicle: saline with Tween-80 89 % of control

NC(=S)N/N=C/c1ccc(OC(F)(F)F)cn1
inactive: dose: 1.56 mg/kg/injection, schedule: Q01DX009 (ip), vehicle: saline with Tween-80 101 % of control | dose: 3.13 mg/kg/injection, schedule: Q01DX009 (ip), vehicle: saline with Tween-80 101 % of control and 107 % of control | dose: 6.25 mg/kg/injection, schedule: Q01DX009 (ip), vehicle: saline with Tween-80 100 % of control and 95 % of control | [13] 99 % of control and 101 % of control | [14] 101 % of control | [15] 114 % of control

CCC(SC)C(=O)c1ccccc1 (stereo not given)
inactive: [14] 114 % of control | [15] 100 % of control | [16] 101 % of control

C=C(C(=O)N(C(C)C)C(C)C)C(C)C(C)(C)O (stereo not given)
inactive: dose: 50.0 mg/kg/injection, schedule: Q04DX002 (ip), vehicle: Klucel (hydroxypropylcellulose) (HPC) 101 % of control | dose: 100.0 mg/kg/injection, schedule: Q04DX002 (ip), vehicle: Klucel (hydroxypropylcellulose) (HPC) 101 % of control

CC1(C)CC(=O)C(CC(=O)c2ccccc2)=C(NNc2ccncc2)C1
inactive: [7] 94 % of control | [8] 95 % of control | [9] 91 % of control

CCc1cccc(CC)c1N1CC(C(=O)O)CC1=O (stereo not given)
inactive: dose: 60.0 mg/kg/injection, schedule: Q01DX005 (ip), vehicle: Klucel (hydroxypropylcellulose) (HPC) 107 % of control | dose: 120.0 mg/kg/injection, schedule: Q01DX005 (ip), vehicle: Klucel (hydroxypropylcellulose) (HPC) 101 % of control | dose: 240.0 mg/kg/injection, schedule: Q01DX005 (ip), vehicle: Klucel (hydroxypropylcellulose) (HPC) 101 % of control

O=C(NCCCl)Nc1ccn(C(=O)NCCCl)c(=O)n1
inactive: [1] 95 % of control | [2] 100 % of control

CCOC(=O)CNC(=O)C(CS)NC(=O)C(CSC(c1ccccc1)c1ccccc1)NC(=O)OCc1ccccc1 (stereo not given)
inactive: [4] 97 % of control | [5] 99 % of control | [6] 103 % of control

CCNC(=O)N(Cc1ccccc1)Cc1ccccc1
inactive: dose: 12.5 mg/kg/injection, schedule: Q01DX009 (ip), vehicle: other 114 % of control | dose: 25.0 mg/kg/injection, schedule: Q01DX009 (ip), vehicle: other 112 % of control | dose: 50.0 mg/kg/injection, schedule: Q01DX009 (ip), vehicle: other 104 % of control | dose: 100.0 mg/kg/injection, schedule: Q01DX009 (ip), vehicle: other 118 % of control

CN1c2ccccc2N=Cc2c1oc1ccc3ccccc3c1c2=O
inactive: [17] 96 % of control | [18] 103 % of control | [4] 92 % of control

NC(=O)/C(N=Nc1ccccc1)=N\Nc1ccccc1
inactive: dose: 6.25 mg/kg/injection, schedule: Q01DX005 (ip), vehicle: Klucel (hydroxypropylcellulose) (HPC) 91 % of control | [17] 91 % of control | [18] 87 % of control

CCC(CN)C1=Nc2ccccc2C1 (stereo not given)
inactive: dose: 25.0 mg/kg/injection, schedule: Q04DX003 (ip), vehicle: saline 101 % of control | dose: 50.0 mg/kg/injection, schedule: Q04DX003 (ip), vehicle: saline 96 % of control | dose: 100.0 mg/kg/injection, schedule: Q04DX003 (ip), vehicle: saline 103 % of control and 111 % of control

BrCC[Se]c1ccccc1
inactive: [14] 103 % of control | [15] 112 % of control and 117 % of control | [16] 120 % of control and 124 % of control

O=C(NCCCl)OCC(Cl)(Cl)Cl
inactive: [15] 91 % of control | [16] 100 % of control | dose: 200.0 mg/kg/injection, schedule: Q01DX009 (ip), vehicle: saline with Tween-80 98 % of control

Cc1ccc(S(=O)(=O)N=Nc2c(O)c3ccccc3c3ccccc23)cc1
inactive: [1] 103 % of control | [2] 103 % of control | [3] 100 % of control

C[Si](CCCNCCN)(O[Si](C)(CCCNCCN)c1ccccc1)c1ccccc1 (stereo not given)
inactive: dose: 15.0 mg/kg/injection, schedule: Q01DX005 (ip), vehicle: saline with Tween-80 109 % of control | dose: 30.0 mg/kg/injection, schedule: Q01DX005 (ip), vehicle: saline with Tween-80 105 % of control | [19] 100 % of control

CCCCCCCCCCCCN(C)C
inactive: [13] 100 % of control | [14] 100 % of control | [15] 100 % of control

CSCCC(NC(=O)CNC(=O)OCc1ccccc1)C(=O)O (stereo not given)
inactive: [20] 94 % of control | [7] 95 % of control | [8] 100 % of control | [9] 93 % of control | dose: 400.0 mg/kg/injection, schedule: Q01DX009 (ip), vehicle: Klucel (hydroxypropylcellulose) (HPC) 87 % of control

O=C(CSc1ncnc2nc[nH]c12)c1ccc([N+](=O)[O-])cc1
inactive: [10] 92 % of control | [11] 102 % of control | [12] 112 % of control

Cc1cc2cc3n(c2nn1)N=C(Cl)CC3
inactive: [19] 86 % of control | dose: 120.0 mg/kg/injection, schedule: Q01DX005 (ip), vehicle: saline with Tween-80 101 % of control

C/C=C/C#CC#C/C=C/C=C/CC
inactive: dose: 12.5 mg/kg/injection, schedule: Q01DX009 (ip), vehicle: Klucel (hydroxypropylcellulose) (HPC) 104 % of control | [20] 98 % of control | [7] 103 % of control | [8] 98 % of control
